Patent US20240368153A1, “Aminopyridine-based MTA-Cooperative PRMT5 Inhibitors” (Mirati Therapeutics, Inc., priority 2021, published 2024)

Legend:
[1] = target: recombinant human dual expressed Avi PRMT5/His-MEP50 protein (Homo sapiens (Human), UniProt O14744); experiment: HTRF binding assay in presence of MTA; details: 30 μM MTA
Method: The PRMT5 binding activity of compounds of the present invention was determined using an HTRF binding assay or SPR assay.
A recombinant human dual expressed Avi PRMT5/His-MEP50) protein (corresponding to amino acids for PRMT5 2-637, and 2-342 for MEP50 expressed in baculovirus) was incubated with target fragments in final buffer (25 mM ADA pH 7.2, 30 μM MTA, 1 mM TCEP, 50 mM NaCl, 0.002% Tween, 5 nM proprietary Tracer binding compound prepared in-house), overnight at 2-8° C. After overnight incubation the binding is monitored after the addition of 0.5 nM Anti-His-Tb (Cisbio) after 1 hr incubation at RT (˜20-24 hrs total binding time). The HTRF signal was measured using a Clariostar reader (BMG) excitation filter (Ex Tr), dichroic filter (LP TP) and emission filters (F 665-10 and F 620-10) manufacturer's instructions. The HTRF ratio was calculated using the formula: [emission 665/emission 620]*10000.

[2] = target: PRMT5•MTA (biotinylated PRMT5-MEP50) (Homo sapiens (Human), UniProt O14744); experiment: SPR binding assay, MTA running buffer; details: 20 μM MTA running buffer
Method: (§1) SPR screening was performed in MTA running buffer (25 mM Bicine pH 7.6, 100 mM NaCl, 1 mM TCEP, 20 μM MTA, 0.05% Tween-20 and 2% DMSO). The biotinylated PRMT5-MEP50 surface was equilibrated with MTA running buffer for 12 hours prior to the start. […] Subsequently, compound titration was repeated in SAM-running buffer (25 mM Bicine pH 7.6, 100 mM NaCl, 1 mM TCEP, 20 μM SAM, 0.05% Tween-20, and 2% DMSO). […] After double referencing, the steady-state response was extracted for each fragment concentration and was fit to the Langmuir isotherm equation to determine the equilibrium dissociation constant (KD).

[3] = target: PRMT5•SAM (biotinylated PRMT5-MEP50) (Homo sapiens (Human), UniProt O14744); experiment: SPR binding assay, SAM running buffer; details: 20 μM SAM running buffer
Method: as §1

PRMT5/MEP50 complex [4] = target: T1, PRMT5/MEP50 complex (Homo sapiens (Human), UniProt O14744); experiment: PRMT5:MEP50 FlashPlate Assay; type: biochemical
Method: The PRMT5 inhibitory activity of compounds of the present invention was determined using a PRMT5:MEP50 FlashPlate Assay (Reaction Biology Corporation).
The assay uses purified human, PRMT5 enzyme to convert S-adenosyl-L-[methyl-^3H]methionine plus histone H4 L-arginine to S-adenosyl-L-homocysteine plus histone H4 [methyl-^3H]-L-arginine. The assay was carried out using Streptavidin-coated FlashPlates (Perkin Elmer), which contained a scintillant embedded in the plastic of the plate. The histone H4 peptide substrate was conjugated with biotin, which binds to the streptavidin-coated well of the plate, placing the H4 peptide in close proximity to the side well and the scintillant. The transfer of the tritiated methyl group from S-adenosyl-L-[methyl-^3H]methionine to the bound histone H4 peptide generated a radiolabeled histone H4, which was quantitated by measuring in a scintillation counter to determine the activity of PRMT5 enzyme in the presence and absence of compound. […] Briefly, compounds of the present invention were solubilized in 100% DMSO at a highest concentration of 10 mM. For IC, determinations, the initial starting concentration for the serial dilutions of each compound was 50 μM. Control samples lacking compound, PRMT5/MEP50 complex or various reaction components also were prepared and processed in parallel with compound test samples. SAH was used as a positive control for assay validation. To measure PRMT5 inhibitory activity, 3 nM PRMT5/MEP50 complex (Reaction Biology Corporation) was preincubated with test compound in assay buffer containing 40 nM histone H4 peptide (amino acids 1-15)-Biotin conjugate for 20 min at room temperature. The enzymatic reaction was initiated by adding 1 μM tritiated S-adenosyl methionine (final concentration) and the reaction is allowed to proceed for 20 min. The reaction was stopped and the amount of bound, tritiated H4 peptide in each sample was determined using a scintillation counter. The IC50 value for each compound was calculated from each 10-point dose-response curve for samples plus and minus MTA using GraphPad Prism software and the results for exemplary compounds of Formula (I) is shown in Table 9a.

PRMT5/MEP50 complex [5] = target: T1, PRMT5/MEP50 complex; experiment: PRMT5:MEP50 HotSpot Assay; type: biochemical; details: read-out: IC50 + 2 μM MTA, full-length histone H2A, presence of 2 μM MTA
Method: The assay uses recombinant full-length histone H2A as the PRMT5 substrate. Enzymatic transfer of the tritiated methyl group from S-adenosyl-L-[methyl-3H]methionine to the histone H2A protein generated a radiolabeled histone […] in a scintillation counter to determine the activity of PRMT5 enzyme in the presence and absence of compound. […] Briefly, compounds of the present invention were solubilized in 100% DMSO at a highest concentration of 10 mM. […] Control samples lacking compound, PRMT5/MEP50 complex or various reaction components also were prepared and processed in parallel with compound test samples. SAH was used as a positive control for assay validation. To measure PRMT5 inhibitory activity. 1 nM PRMT5/MEP50 complex (Reaction Biology Corporation) was preincubated with test compound in assay buffer containing 5 μM full-length histone H2A for 20 min at room temperature. The enzymatic reaction was initiated by adding 1 μM tritiated S-adenosyl methionine (final concentration) and the reaction was allowed to proceed for 60 min. The reaction was stopped and transferred to filter paper for detection. The amount of tritiated H2A in each sample was determined using a scintillation counter.

[6] = histone H4 peptide, absence of MTA, read-out: IC50
[7] = read-out: IC50 + 2 μM MTA, histone H4 peptide, presence of 2 μM MTA

Sequence of recombinant human dual expressed Avi PRMT5/His-MEP50 protein (O14744 2-637): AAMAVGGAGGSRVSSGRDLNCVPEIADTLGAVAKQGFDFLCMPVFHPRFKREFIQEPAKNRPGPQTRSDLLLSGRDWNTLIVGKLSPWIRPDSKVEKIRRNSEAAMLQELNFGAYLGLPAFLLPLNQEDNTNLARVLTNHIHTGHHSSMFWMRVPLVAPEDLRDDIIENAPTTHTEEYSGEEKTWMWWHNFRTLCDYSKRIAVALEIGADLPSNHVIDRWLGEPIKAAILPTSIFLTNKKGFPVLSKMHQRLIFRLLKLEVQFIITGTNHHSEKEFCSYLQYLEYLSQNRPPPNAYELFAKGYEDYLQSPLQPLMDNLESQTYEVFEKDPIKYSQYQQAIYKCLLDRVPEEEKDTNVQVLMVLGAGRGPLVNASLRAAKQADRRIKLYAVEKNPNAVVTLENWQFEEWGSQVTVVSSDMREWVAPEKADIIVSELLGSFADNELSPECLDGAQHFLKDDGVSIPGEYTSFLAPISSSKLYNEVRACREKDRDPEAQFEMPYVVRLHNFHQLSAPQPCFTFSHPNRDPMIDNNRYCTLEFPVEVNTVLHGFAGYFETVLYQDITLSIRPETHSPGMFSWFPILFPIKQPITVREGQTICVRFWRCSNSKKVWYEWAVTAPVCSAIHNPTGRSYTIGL
Sequence of recombinant human dual expressed Avi PRMT5/His-MEP50 protein (Q9BQA1 2-342 partner): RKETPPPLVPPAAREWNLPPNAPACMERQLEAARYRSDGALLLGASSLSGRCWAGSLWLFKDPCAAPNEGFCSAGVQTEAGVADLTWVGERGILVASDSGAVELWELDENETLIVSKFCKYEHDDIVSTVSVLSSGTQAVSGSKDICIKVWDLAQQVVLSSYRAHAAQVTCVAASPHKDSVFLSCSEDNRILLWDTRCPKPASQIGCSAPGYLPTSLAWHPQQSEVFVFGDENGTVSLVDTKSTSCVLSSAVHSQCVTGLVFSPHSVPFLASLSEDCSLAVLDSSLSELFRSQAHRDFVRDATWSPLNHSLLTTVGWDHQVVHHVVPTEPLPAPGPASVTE
Sequence of PRMT5•SAM (biotinylated PRMT5-MEP50) (O14744 whole entry): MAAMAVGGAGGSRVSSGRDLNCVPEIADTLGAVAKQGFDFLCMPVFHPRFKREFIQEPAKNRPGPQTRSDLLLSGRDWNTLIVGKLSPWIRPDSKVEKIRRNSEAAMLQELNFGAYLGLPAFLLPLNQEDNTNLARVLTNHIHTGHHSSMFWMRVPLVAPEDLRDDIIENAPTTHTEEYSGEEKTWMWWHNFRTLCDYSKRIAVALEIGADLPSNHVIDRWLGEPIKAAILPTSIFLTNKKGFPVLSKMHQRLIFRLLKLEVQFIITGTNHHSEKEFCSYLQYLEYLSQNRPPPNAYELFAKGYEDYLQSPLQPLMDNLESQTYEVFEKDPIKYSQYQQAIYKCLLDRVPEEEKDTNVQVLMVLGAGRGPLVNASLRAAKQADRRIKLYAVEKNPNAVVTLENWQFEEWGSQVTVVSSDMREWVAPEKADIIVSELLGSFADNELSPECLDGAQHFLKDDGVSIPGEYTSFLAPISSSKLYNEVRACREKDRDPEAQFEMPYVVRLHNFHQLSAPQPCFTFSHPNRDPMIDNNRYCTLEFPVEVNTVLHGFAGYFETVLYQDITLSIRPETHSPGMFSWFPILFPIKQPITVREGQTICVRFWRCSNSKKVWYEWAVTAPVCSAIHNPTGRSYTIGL
Sequence of PRMT5•SAM (biotinylated PRMT5-MEP50) (Q9BQA1 whole entry partner): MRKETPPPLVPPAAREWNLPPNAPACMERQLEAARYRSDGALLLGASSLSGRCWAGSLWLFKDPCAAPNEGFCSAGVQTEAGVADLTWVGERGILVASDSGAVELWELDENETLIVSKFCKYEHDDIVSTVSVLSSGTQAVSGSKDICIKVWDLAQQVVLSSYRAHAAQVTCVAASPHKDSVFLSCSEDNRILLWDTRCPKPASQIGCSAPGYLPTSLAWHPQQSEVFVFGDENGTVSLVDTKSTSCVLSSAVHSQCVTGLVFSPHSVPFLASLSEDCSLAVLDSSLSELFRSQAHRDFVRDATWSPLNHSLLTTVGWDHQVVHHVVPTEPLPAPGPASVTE
Sequence of PRMT5•MTA (biotinylated PRMT5-MEP50) (O14744 whole entry, the tested form may be a part): as the sequence (O14744 whole entry) above
Sequence of PRMT5•MTA (biotinylated PRMT5-MEP50) (Q9BQA1 whole entry partner, the tested form may be a part): as the sequence (Q9BQA1 whole entry partner) above
T1 sequence (O14744 whole entry): as the sequence (O14744 whole entry) above
T1 sequence (Q9BQA1 whole entry partner): as the sequence (Q9BQA1 whole entry partner) above

Compound	IC50 [1]	Kd [2]	Kd [3]	IC50 (PRMT5/MEP50 complex [4]; [6])	IC50 (PRMT5/MEP50 complex [4]; [7])	IC50 (PRMT5/MEP50 complex [5])
CC(=O)N(Cc1cnc2c(C)cc(N)nc2c1)c1ccc2ccccc2c1C#N [Example 7-5, N-[(6-amino-8-methyl-1,5-naphthyridin-3-yl)methyl]-N-(1-cyano-2-naphthyl)acetamide]	3 nM	2 nM	2 nM	6460 nM	20.3 nM	1340 nM
CC(=O)N(Cc1cc2nc(N)c(C)cc2[nH]1)c1ccc2ccccc2c1C#N [Example 14-2, N-[(5-amino-6-methyl-1H-pyrrolo[3,2-b]pyridin-2-yl)methyl]-N—(I-cyano-2-naphthyl)acetamide]	2 nM	1 nM	1 nM	798 nM	1.72 nM	553 nM
Cc1cc2[nH]c(C(=O)N(Cc3ccc(C(F)(F)F)cn3)[C@H]3CCCc4nccnc43)cc2nc1N [Example 10-3, (S)-5-amino-6-methyl-N-(5,6,7,8-tetrahydroquinoxalin-5-yl)-N-((5-(trifluoromethyl)pyridin-2-yl)methyl)-1H-pyrrolo[3,2-b]pyridine-2-carboxamide]	–	–	–	–	–	10300 nM
Cc1cc2ncc(C(=O)N(Cc3ccc(Br)cn3)[C@H](C)c3ncccn3)cc2nc1N [Example 10-8, (R)-6-amino-N-((5-bromopyridin-2-yl)methyl)-7-methyl-N-(1-(pyrimidin-2-yl)ethyl)-1,5-naphthyridine-3-carboxamide]	–	–	–	–	–	60.2 nM
Cc1cc2[nH]c(C(=O)N(Cc3ccc(C(F)(F)F)cn3)C3CCCc4nccnc43)cc2nc1N (stereo in doubt) [Example 10-4, (R)-5-amino-6-methyl-N-(5,6,7,8-tetrahydroquinoxalin-5-yl)-N-((5-(trifluoromethyl)pyridin-2-yl)methyl)-1H-pyrrolo[3,2-b]pyridine-2-carboxamide]	–	–	–	–	–	379 nM
Cc1cc2ncc(C(=O)N(Cc3ccc(C(F)(F)F)cn3)[C@H]3CCCc4nccnc43)cc2nc1N [Example 10-5, (S)-6-amino-7-methyl-N-(5,6,7,8-tetrahydroquinoxalin-5-yl)-N-((5-(trifluoromethyl)pyridin-2-yl)methyl)-1,5-naphthyridine-3-carboxamide]	–	–	–	–	–	14700 nM
Cc1cc2ncc(C(=O)N(Cc3ccc(C(F)(F)F)cn3)[C@@H]3CCCc4nccnc43)cc2nc1N [Example 10-6, (R)-6-amino-7-methyl-N-(5,6,7,8-tetrahydroquinoxalin-5-yl)-N-((5-(trifluoromethyl)pyridin-2-yl)methyl)-1,5-naphthyridine-3-carboxamide]	–	–	–	–	–	925 nM
Cc1cc(N)nc2cc(CNC(=O)c3cc(O)ncn3)cnc12 [Example 7-3, N-[(6-amino-8-methyl-1,5-naphthyridin-3-yl)methyl]-6-hydroxy-pyrimidine-4-carboxamide]	1060 nM	682 nM	12500 nM	> 100000 nM	60000 nM	–
Cc1cc(N)nc2cc(Cc3ccccc3Cl)cnc12 [Example 2-3, 7-(2-chlorobenzyl)-4-methyl-1,5-naphthyridin-2-amine]	1310 nM	4680 nM	31500 nM	> 300000 nM	> 300000 nM	–
Cc1cc2[nH]c(CN3CCc4ccccc4C3=O)cc2nc1N [Example 14-6, 2-[(5-amino-6-methyl-1H-pyrrolo[3,2-b]pyridin-2-yl)methyl]-3,4-dihydroisoquinolin-1-one]	7 nM	1 nM	6 nM	43200 nM	504 nM	–
Cc1cc(N)nc2cc(Cc3ccccc3C#N)cnc12 [Example 2-4, 2-((6-amino-8-methyl-1,5-naphthyridin-3-yl)methyl)benzonitrile]	992 nM	874 nM	3090 nM	> 300000 nM	> 300000 nM	–
Cc1cc2sc(CNC(=O)c3ccccc3)cc2nc1N [Example 16-1, N-[(5-amino-6-methyl-thieno[3,2-b]pyridin-2-yl)methyl]benzamide]	163 nM	72 nM	1350 nM	> 300000 nM	18200 nM	–
Nc1nc2cc(CNC(=O)c3ccncn3)[nH]c2cc1Br [Example 8-2, N-[(5-amino-6-bromo-1H-pyrrolo[3,2-b]pyridin-2-yl)methyl]pyrimidine-4-carboxamide]	13 nM	9 nM	137 nM	5790 nM	362 nM	–
Nc1nc2cc[nH]c2cc1C(F)(F)F [Example 9-3, 6-(trifluoromethyl)-1H-pyrrolo[3,2-b]pyridin-5-amine]	20300 nM	11700 nM	29200 nM	431000 nM	210000 nM	–
Cc1cc(N)nc2cc(CNC(=O)c3cc(NC4CC4)ncn3)cnc12 [Example 7-4, N-[(6-amino-8-methyl-1,5-naphthyridin-3-yl)methyl]-6-(cyclopropylamino)pyrimidine-4-carboxamide]	29 nM	22 nM	81 nM	18200 nM	1660 nM	–
Cc1cc(N)nc2cc(Cc3cnn(C)c3)cnc12 [Example 2-9, 4-methyl-7-[(1-methylpyrazol-4-yl)methyl]-1,5-naphthyridin-2-amine]	204 nM	137 nM	748 nM	243000 nM	17100 nM	–
Cc1cc(N)nc2cc(C(=O)N(Cc3ccc(Br)cn3)[C@@H](C)c3ncccn3)cnc12 [Example 10-11, 6-amino-N-[(5-bromo-2-pyridyl)methyl]-8-methyl-N-[(1S)-1-pyrimidin-2-ylethyl]-1,5-naphthyridine-3-carboxamide]	–	–	–	–	–	10400 nM
Cc1cc2[nH]c(Cn3ccc4ccccc4c3=O)cc2nc1N [Example 14-7, 2-[(5-amino-6-methyl-1H-pyrrolo[3,2-b]pyridin-2-yl)methyl]isoquinolin-1-one]	8 nM	2 nM	6 nM	36700 nM	474 nM	–
Cc1cc2ncc(C(=O)N(Cc3ccc(Br)cn3)[C@@H](C)c3ncccn3)cc2nc1N [Example 10-7, (S)-6-amino-N-((5-bromopyridin-2-yl)methyl)-7-methyl-N-(1-(pyrimidin-2-yl)ethyl)-1,5-naphthyridine-3-carboxamide]	–	–	–	–	–	16200 nM
